According to US20130203815A1, “CYTOKINE INHIBITORS” (PIRAMAL ENTERPRISES LIMITED, priority 2010, published 2013):
pIC50: −log10 of the molar value. Where a name gives a salt, the structure may show the parent alone.

Tests used:
Assay type in all cases: cell-based
TNF-α [1] = assay: Whole blood cell culture assay, LPS-induced TNF-α release; conditions: Homo sapiens, at a concentration of 10 μM, LPS 1 μg/ml, 4.5 hours
Method: TNF-α production by lipopolysaccharide (LPS) in whole blood was measured according to the method described in literature (J. Immunol. Methods, 1991, 139, 233-240).
Blood was collected from healthy donors into potassium EDTA vacutainer tubes (Becton Dickinson) and diluted with RPMI (Roswell Park Memorial Institute) 1640 culture medium (Gibco BRL, Pasley, UK) containing 100 U/ml penicillin and 100 μg/ml streptomycin, (100× solution, Sigma Chemical Co. St Louis, Mo.) with no added serum. The white blood cell count was adjusted to 1×10^6 cells/ml and 100 it/well of the diluted blood was transferred into 96-well culture plates. Following cell plating, 79 μl of culture medium and 1 μl of the test compounds (final concentration 1 μM and 10 μM) dissolved in DMSO was added to the cells. The final concentration of DMSO was adjusted to 0.5%. 1 μl of vehicle (0.5% DMSO) was used as control. Rolipram (300 μM) was used as a standard compound. The plates were incubated for 30 minutes at 37° C. in an atmosphere of 5% CO2. Finally, 20 μl (10 μg/ml) per well of LPS (Escherchia coli 0127:B8, Sigma Chemical Co. St. Louis, Mo.) was added, for a final concentration of 1 μg/ml. Plates were incubated at 37° C. for 4.5 hours in an atmosphere of 5% CO2. Supernatants were harvested and assayed for TNF-α by ELISA as described by the manufacturer (OptiEIA ELISA sets, BD Biosciences, Pharmingen). Percent inhibition of TNF-α release in comparison to the control was calculated.

IL-1β = assay: hPBMCs assay, LPS-induced IL-1β; conditions: Homo sapiens, LPS 1 μg/ml, 5 hours, ELISA
Method: (§1) TNF-α production by lipopolysaccharides (LPS) in hPBMCs was measured according to the method described in literature (Physiol. Res., 2003, 52, 593-598). Blood was collected from healthy donors into Potassium EDTA vacutainer tubes (BD vacutainer). The PBMCs were isolated using gradient centrifugation in Histopaque-1077 solution (Sigma). Isolated PBMC were suspended in RPMI 1640 culture medium (Sigma-Aldrich Fine Chemicals, USA), containing 10% fetal bovine serum (FBS) (JRH, USA), 100 U/ml penicillin (Sigma Chemical Co. St Louis, Mo.) and 100 μg/ml streptomycin (Sigma Chemical Co. St Louis, Mo.). The cell concentration was adjusted to 1×10^6 cells/ml. The viability as determined by trypan blue dye exclusion was uniformly ≧98%. The cell suspension (100 μl) was added to the wells of a 96-well culture plate. Following cell plating, 79 μl of the culture medium and 1 μl of eight different concentrations of the test compounds (final concentration 0.03, 0.1, 0.3, 1, 3, 10, 30, 100 μg/ml) dissolved in DMSO were added to the cells. The final concentration of DMSO was adjusted to 0.5%. The vehicle (0.5 DMSO) was used as control. Rolipram (300 μM) was used as a standard compound. The plates were incubated for 30 minutes at 37° C. in an atmosphere of 5% CO2. Finally, 20 μl (10 μg/ml) per well of LPS, (Escherchia coli 0127:B8, Sigma Chemical Co., St. Louis, Mo.) was added, for a final concentration of 1 µg/ml. The plates were incubated at 37° C. for 5 hours in an atmosphere of 5% CO2. To assess the cytotoxic effect of the test compounds, the cellular viability test was performed using MTS (3-(4,5-dimethylthiazol-2-yl)-5-(3-carboxymethoxyphenyl)-2-(4-sulfonyl)-2H-tetrazolium) reagent after 5 hours of incubation. Supernatants were harvested and assayed for TNF-α, interleukin-1β (IL-1β), interleukin-6 (IL-6) and interleukin-8 (IL-8) by ELISA as described by the manufacturer. (OptiEIA ELISA sets, BD Biosciences, Pharmingen). […]

IL-6 = assay: hPBMCs assay, LPS-induced IL-6; conditions: Homo sapiens, LPS 1 μg/ml, 5 hours, ELISA
Method: as §1

IL-8 = assay: hPBMCs assay, LPS-induced IL-8; conditions: Homo sapiens, LPS 1 μg/ml, 5 hours, ELISA
Method: as §1

TNF-α [2] = assay: hPBMCs assay, LPS-induced TNF-α; conditions: Homo sapiens, LPS 1 μg/ml, 5 hours, ELISA
Method: as §1

| pIC50 (IL-1β) | pIC50 (IL-6) | pIC50 (IL-8) | pIC50 (TNF-α [2]) | SMILES | inhibition at 10 µM (TNF-α [1]) [%] |
| --- | --- | --- | --- | --- | --- |
|  |  |  |  | COc1cc(OC)c(C2CCN(C)C2CO)c(O)c1C(=O)C=Cc1ccc(Cl)cc1 (racemic) [Example 28, (+/−)3-(4-Chlorophenyl)-1-(2-hydroxy-3-(2-(hydroxymethyl)-1-methylpyrrolidin-3-yl)-4,6-dimethoxy-phenyl)prop-2-en-1-one] | 30 |
| 6.70 | 5.64 | 5.28 | 6.10 | COc1cc(OC)c(C2CCN(C)C2CO)c(O)c1C(=O)C=Cc1cccc(Br)c1 (racemic) [Example 21, (+/−)3-(3-Bromophenyl)-1-(2-hydroxy-3-(2-(hydroxymethyl)-1-methylpyrrolidin-3-yl)-4,6-dimethoxy-phenyl)prop-2-en-1-one] | 61 |
|  |  |  |  | COc1cc(OC)c(C2CCN(C)C2CO)c(O)c1C(=O)C=Cc1ccc(F)cc1 (racemic) [Example 29, (+/−)3-(4-Fluorophenyl)-1-(2-hydroxy-3-(2-(hydroxymethyl)-1-methylpyrrolidin-3-yl)-4,6-dimethoxy-phenyl)prop-2-en-1-one] | 31 |
|  |  |  |  | COc1cc(OC)c(C2CCN(C)C2CO)c(O)c1C(=O)C=Cc1ccc(C)o1 (racemic) [Example 45, (+/−)1-(2-Hydroxy-3-(2-(hydroxymethyl)-1-methylpyrrolidin-3-yl)-4,6-dimethoxy-phenyl)-3-(5-methylfuran-2-yl)prop-2-en-1-one] | 54 |
|  |  |  |  | COc1cc(OC)c(C2CCN(C)C2CO)c(O)c1C(=O)C=Cc1cccc(C)c1 (racemic) [Example 23, (+/−)1-(2-Hydroxy-3-(2-(hydroxymethyl)-1-methylpyrrolidin-3-yl)-4,6-dimethoxy-phenyl)-3-m-tolylprop-2-en-1-one] | 32 |
|  |  |  |  | COc1cc(OC)c(C2CCN(C)C2CO)c(O)c1C(=O)C=Cc1cccnc1 (racemic) [Example 48, (+/−)1-(2-Hydroxy-3-(2-(hydroxymethyl)-1-methylpyrrolidin-3-yl)-4,6-dimethoxy-phenyl)-3-(pyridin-3-yl)prop-2-en-1-one] | 61 |
| 6.10 | 5.31 | 5.19 | 6.05 | COc1cc(OC)c(C2CCN(C)C2CO)c(O)c1C(=O)C=Cc1ccccc1Cl (racemic) [Example 20, (+/−)3-(2-Chlorophenyl)-1-(2-hydroxy-3-(2-(hydroxymethyl)-1-methylpyrrolidin-3-yl)-4,6-dimethoxy-phenyl)prop-2-en-1-one hydrochloride] | 66 |
| 7.00 | 5.60 | 5.27 | 6.30 | COc1cc(OC)c(C2CCN(C)C2CO)c(O)c1C(=O)C=Cc1cccc([N+](=O)[O-])c1 (racemic) [Example 25, (+/−)1-(2-Hydroxy-3-(2-(hydroxymethyl)-1-methylpyrrolidin-3-yl)-4,6-dimethoxy-phenyl)-3-(3-nitrophenyl)prop-2-en-1-one] | 68 |
|  |  |  |  | COc1cc(OC)c(C2CN(C)C(=O)C2CO)c(O)c1C(=O)C=Cc1ccccc1Cl (racemic) [Example 39, (+/−)4-(3-(3-(2-Chlorophenyl)acryloyl)-2-hydroxy-4,6-dimethoxy-phenyl)-3-(hydroxymethyl)-1-methylpyrrolidin-2-one] | 75 |
